This is an account of results in patent publication US20050215551A1, “1-[2H-1-benzopyran-2-one-8-yl]- piperazine derivatives for the treatment of movement disorders” (SOLVAY PHARMACEUTICALS B.V., priority 2004, published 2005).

Each structure is given as a SMILES string. “Also recorded” adds a separate entry of the source. Where two headings read alike, the source gives them in different places.

The subject of series [1] is DBA/2 mice. The series is described as follows: Anticonvulsant activity: audiogenic seizures in DBA/2 mice. The settings on record: for effect on tonic phase of audiogenic seizures / effect on clonic phase of audiogenic seizures / effect on tonic and clonic phase of audiogenic seizures: 30 min after i.p. administration; for ED50: Mus musculus, ip, 0.5 h, 30 minutes after drug administration; for behavioural changes: all dosages tested. It is filed as in vivo. An excerpt:
DBA/2 mice weighing 6-12 g (22-26 days old; either sex, Harlan Italy Correzzana, Milano, Italy) are housed in groups of 8-10 under a 12-h light/dark cycle (lights on at 7:00 a.m.) with food and water available ad libitum. The experimental protocol is approved by University of Catanzaro Ethical Committee. All procedures are in compliance with the Nationals Institutes of Health Guide for Care and Use of Laboratory Animals (Publication No. 85-23, revised 1985) and European Communities Council Directive of 24 Nov. 1986 (86/609 EEC).
The experiments are performed according to the method previously described by De Sarro et al. (1984), Eur. J. Pharmacol., 104, 55-60. Compounds of the invention or vehicle (controls) are given intraperitoneally (i.p.) and orally (p.o.) as freshly sonicated solutions in methylcellulose 1%. For the […]; pretreatment time at 30 and 60 min., For oral treatment, all animals are pretreated either at 30 or 60 min using the compounds of the invention at doses of 0.1, 0.3, 3, 6 and 10 mg/kg p.o. At least 10 mice per dose are used. After pretreatment time, each mouse is placed under a hemispheric perspex dome (58 cm in diameter) and 1 min is allowed for habituation and assessment of locomotor activity. Animals are challenged with a 12-16 kHz sinusoidal tone at 109 dB. Seizure response is assessed by two independent observers. The sound evoked behaviour is coded using the following scale: 0=no response, 1=wild running, 2=clonus, 3=tonic flexor and/or extensor; 4=respiratory arrest, on the basis of the concordant opinion of the observers. […] The maximum response is recorded for each animal. Rectal temperature is recorded immediately prior to auditory testing using an Elektrolaboratoriet thermometer type T.E.3. Behavioral changes are observed during the period between drug administration and auditory testing. In these experiments separate vehicle-treated and drug-treated groups are used at each pretreatment time (15 min-60 min). Percentage of mice showing wild running, clonic or tonic phase and the duration of anticonvulsant activity are compared to control group and statistically analyzed.
Statistical comparison between groups of control and drug-treated DBA/2 mice is made using Fisher's exact probability test (incidence of the seizure phases). The percentage incidence of each phase of the audiogenic seizure is determined for each drug. These values are plotted against the corresponding doses by a computer construction of the dose-effect curves for calculation of ED50 (with 95% confidence limits). The ED50 values for each compound are calculated using a computer program of the method of Litchfield and Wilcoxon (1949). At least 32 animals are used to calculate each ED50 value.
For systemic injections and oral administrations, all compounds are given intraperitoneally (0.1 ml/10 g of body weight of the mouse) as a freshly prepared solution in methylcellulose 1%. In order to avoid the light sensitivity, weighing and handling are carried out under sodium vapor lamps and the substances are protected from light during the experiments.

Series [2] deals with DBA/2 mice. The series is described as follows: Interaction studies in DBA/2 mice: Compound 1 + vehicle, sumatriptan or SB 258741 (audiogenic seizures). In kind it is in vivo. The settings on record: pre-treatment 3 mg/kg, i.p.; for effect of pre-treatment on the anti-epileptic activity (dose-response curve) of Compound 1: 5 min before Compound 1. On the procedure: The experiments are performed according to the method previously described by De Sarro et al. (1984), Eur. J. Pharmacol., 104, 55-60. Compounds of the invention or vehicle (controls) are given intraperitoneally (i.p.) and orally (p.o.) as freshly sonicated solutions in methylcellulose 1%. For the i.p. treatment compounds of the invention are given at doses of 0.1, 0.3, 3, 10, 15, 20 and 30 mg/kg; pretreatment time at 30 and 60 min., For oral treatment, all animals are pretreated either at 30 or 60 min using the compounds of the invention at doses of 0.1, 0.3, 3, 6 and 10 mg/kg p.o. At least 10 mice per dose are used. After pretreatment time, each mouse is placed under a hemispheric perspex dome (58 cm in diameter) and 1 min is allowed for habituation and assessment of locomotor activity. Animals are challenged with a 12-16 kHz sinusoidal tone at 109 dB. Seizure response is assessed by two independent observers. The sound evoked behaviour is coded using the following scale: 0=no response, 1=wild running, 2=clonus, 3=tonic flexor and/or extensor; 4=respiratory arrest, on the basis of the concordant opinion of the observers. […] The maximum response is recorded for each animal. Rectal temperature is recorded immediately prior to auditory testing using an Elektrolaboratoriet thermometer type T.E.3. Behavioral changes are observed during the period between drug administration and auditory testing. In these experiments separate vehicle-treated and drug-treated groups are used at each pretreatment time (15 min-60 min). Percentage of mice showing wild running, clonic or tonic phase and the duration of anticonvulsant activity are compared to control group and statistically analyzed.

The target in another series is T1, 5-HT1A (Rattus norvegicus, UniProt P19327).
T1 construct: from tissue; host or cells: whole animal (in vivo behavioural test)
T1 sequence (P19327 whole entry): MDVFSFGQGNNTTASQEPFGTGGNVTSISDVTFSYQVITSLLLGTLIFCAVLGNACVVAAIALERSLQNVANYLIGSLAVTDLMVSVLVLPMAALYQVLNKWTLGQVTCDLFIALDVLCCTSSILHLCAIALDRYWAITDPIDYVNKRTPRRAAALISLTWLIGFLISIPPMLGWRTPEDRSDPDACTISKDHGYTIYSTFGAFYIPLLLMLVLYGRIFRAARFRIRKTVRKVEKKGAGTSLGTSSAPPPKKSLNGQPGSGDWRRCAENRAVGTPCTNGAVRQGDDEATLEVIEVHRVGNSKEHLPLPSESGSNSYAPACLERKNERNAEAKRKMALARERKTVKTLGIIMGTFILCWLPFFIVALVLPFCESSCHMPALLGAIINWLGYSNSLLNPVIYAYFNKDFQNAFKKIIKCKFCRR
The series is described as follows: In vivo 5-HT1A agonism: lower lip retraction (LLR). The settings on record: 60 minutes after oral administration. How it is done:
Lower lip retraction was measured according to the method described by Berendsen et al., (Pharmacol. Biochem. Behav. 33, (1989), 821-827).

Setting [3] is: i.p. administration, read-out: ED50 Clonic seizures.
Setting [4] is: i.p. administration, read-out: ED50 Tonic extension.
Setting [5] is: i.p. administration, read-out: ED50 Wild running.

For `Cc1cccc(S(=O)(=O)N2CCC[C@@H]2CCN2CCC(C)CC2)c1` [SB258741], the “effect on tonic phase of audiogenic seizures” value with DBA/2 mice [1] (15 mg/kg) is recorded as “able to significantly (P<0.01) antagonize”. Also, in the series on DBA/2 mice [1] (1, 3, 10 and 15 mg/kg), the “effect on clonic phase of audiogenic seizures” value is on record as “did not significantly antagonize”. Also, the figures for the ED50 in the series on DBA/2 mice [1] (setting [3]), in the series with DBA/2 mice [1] (setting [4]) and with DBA/2 mice [1] (setting [5]) were greater than 15 mg/kg, roughly 12 mg/kg and greater than 15 mg/kg, respectively. In addition, the behavioural changes result with DBA/2 mice [1] (i.p. administration) is on record as “At none of the dosages tested”. In the series with DBA/2 mice [2], the “effect of pre-treatment on the anti-epileptic activity (dose-response curve) of Compound 1” value was “shift the dose-response curve of COMPOUND 1 to the right; also recorded: partly antagonized”.
`CNS(=O)(=O)Cc1ccc2[nH]cc(CCN(C)C)c2c1` [sumatriptan, reference compound]: the “potency in shifting the dose-response curve of Compound 1, compared” value in the series with DBA/2 mice [2] (5 min before) is “more potent than SB 258741”. Also, the “effect of pre-treatment on the anti-epileptic activity (dose-response curve) of Compound 1” value in the series on DBA/2 mice [2] is on record as “shift the dose-response curve of COMPOUND 1 to the right; also recorded: partly antagonized”.
For `O=C(NCCN1CCN(c2cccc3c2OC[C@H](CO)O3)CC1)c1ccc(F)cc1` [flesinoxan], the ED50 is 0.22 mg/kg on 5-HT1A, 9.37 mg/kg in the series on DBA/2 mice [1] (setting [3]), 7.74 mg/kg in the series on DBA/2 mice [1] (setting [4]) and greater than 15 mg/kg in the series with DBA/2 mice [1] (setting [5]). Also, the “effect on tonic and clonic phase of audiogenic seizures” value in the series with DBA/2 mice [1] (0.3, 1, 3, 5 and 7,5 mg/kg) is “did not significantly antagonized”; in the series with DBA/2 mice [1] (10 and 15 mg/kg), “able to significantly (P<0.0.1) antagonize”. Besides, the behavioural changes entry with DBA/2 mice [1] (i.p. administration) is given as “At none of the dosages tested”.
Consider `CCCN(CCC)C1CCc2cccc(O)c2C1` (centres unmarked) [Compound 8-OH-DPAT, 8-hydroxy-2-(di-n-propylamino)tetralin], for which the “effect on tonic phase of audiogenic seizures” value is “did not significantly antagonized” in the series on DBA/2 mice [1] (0.3, 1, 3, 10 mg/kg); “able to significantly (P<0.01 and P<0.05) antagonize” in the series with DBA/2 mice [1] (15 and 20 mg/kg). Also, the “effect on clonic phase of audiogenic seizures” value with DBA/2 mice [1] (0.3, 1, 3, 10, 15 and 20 mg/kg) was “did not significantly antagonized”. Besides, the ED50 in the series on DBA/2 mice [1] (read-out: ED50 Tonic extension, i.p. administration) was 15 mg/kg; in the series on DBA/2 mice [1] (setting [3]) it was greater than 20 mg/kg; in the series with DBA/2 mice [1] (setting [5]), greater than 20 mg/kg. Moreover, the behavioural changes result with DBA/2 mice [1] (i.p. administration) was “At none of the dosages tested”.
